Measurements as given in paper PMC2766550 (Peptides, 2009).
Square brackets hold non-standard residues; d marks the D form. Ends that are not written are not given here. Peptide text beside a SMILES is read from it. * marks the point of attachment. dPhe(F5) = N[C@H](Cc1c(F)c(F)c(F)c(F)c1F)C(=O)O; pGlu = O=C1CC[C@@H](C(=O)O)N1; Nle = CCCC[C@H](N)C(=O)O; βAla = NCCC(=O)O; NHPr = CCCN*

Experiments:
[1] = target: T1, hGRP-receptor (Homo sapiens, UniProt P30550); assay: Whole cell radioligand binding, HuTu-80 cells
T1 sequence (P30550 whole entry): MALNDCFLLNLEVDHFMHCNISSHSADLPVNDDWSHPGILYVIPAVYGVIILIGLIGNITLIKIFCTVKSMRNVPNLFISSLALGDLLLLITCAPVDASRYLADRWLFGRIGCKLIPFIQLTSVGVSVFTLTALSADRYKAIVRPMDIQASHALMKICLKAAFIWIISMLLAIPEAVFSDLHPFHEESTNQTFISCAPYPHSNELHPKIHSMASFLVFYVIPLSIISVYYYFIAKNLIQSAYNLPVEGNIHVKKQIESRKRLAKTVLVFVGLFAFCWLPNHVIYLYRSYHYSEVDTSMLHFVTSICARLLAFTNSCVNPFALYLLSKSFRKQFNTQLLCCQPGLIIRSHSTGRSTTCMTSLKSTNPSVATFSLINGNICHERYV

[2] = target: T2, hNMB-receptor (Homo sapiens, UniProt P28336); assay: Whole cell radioligand binding, hNMB-receptor transfected Balb 3T3 cells; details: IC50 hNMB-R Balb-3T3, hNMB-receptor transfected Balb 3T3 cells; 125I-[D-Tyr0]NMB, 1 h, 22°C; mean ± S.E.
T2 sequence (P28336 whole entry): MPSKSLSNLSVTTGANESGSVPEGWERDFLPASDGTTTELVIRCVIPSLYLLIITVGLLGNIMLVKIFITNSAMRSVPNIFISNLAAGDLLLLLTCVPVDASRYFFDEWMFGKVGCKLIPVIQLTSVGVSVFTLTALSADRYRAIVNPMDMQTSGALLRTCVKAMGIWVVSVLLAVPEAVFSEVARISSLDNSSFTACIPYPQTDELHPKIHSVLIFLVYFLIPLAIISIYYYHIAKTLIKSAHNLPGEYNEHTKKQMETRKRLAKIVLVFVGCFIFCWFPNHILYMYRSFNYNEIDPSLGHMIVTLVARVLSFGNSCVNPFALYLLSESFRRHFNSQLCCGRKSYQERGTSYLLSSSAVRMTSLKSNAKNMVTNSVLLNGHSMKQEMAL

[3] = target: T2, hNMB-receptor; assay: Whole cell radioligand binding, hNMB-receptor transfected NCI-H1299 cells
[4] = target: T3, hBRS-3 receptor (Homo sapiens, UniProt P32247); assay: Whole cell radioligand binding, hBRS-3 transfected Balb 3T3 cells
T3 sequence (P32247 1-399): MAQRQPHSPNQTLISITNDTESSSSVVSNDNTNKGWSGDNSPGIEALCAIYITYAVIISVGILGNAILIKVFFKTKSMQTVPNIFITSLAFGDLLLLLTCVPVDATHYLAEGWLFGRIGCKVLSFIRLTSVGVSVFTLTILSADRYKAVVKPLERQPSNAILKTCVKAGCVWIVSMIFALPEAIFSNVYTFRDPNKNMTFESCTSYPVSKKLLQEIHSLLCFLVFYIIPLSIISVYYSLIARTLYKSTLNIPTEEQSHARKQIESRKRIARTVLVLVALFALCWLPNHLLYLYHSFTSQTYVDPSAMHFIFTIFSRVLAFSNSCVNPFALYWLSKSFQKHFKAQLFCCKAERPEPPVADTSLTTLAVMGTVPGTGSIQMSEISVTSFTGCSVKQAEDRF

[5] = target: T1, hGRP-receptor; assay: [3H]inositol phosphate generation, hGRP-receptor transfected Balb 3T3 cells; type: cell-based
[6] = target: T1, hGRP-receptor; assay: [3H]inositol phosphate generation, HuTu-80 cells; type: cell-based
[7] = target: T2, hNMB-receptor; assay: cell-based; details: for [3H]IP NCI-H1299 (hNMB-R) EC50: stimulation of [3H]IP generation
[8] = target: T1, hGRP-receptor; assay: Whole cell radioligand binding, hGRP-receptor transfected Balb 3T3 cells; details: b34 values for receptors expressed in Balb 3T3 cells

Compound | IC50 [1] [nM] | IC50 [2] [nM] | IC50 [3] [nM] | IC50 [4] [nM] | IC50 [5] [nM] | IC50 [6] [nM] | IC50 [7] [nM] | selectivity for hGRP-receptor over hNMB-receptor (binding affinities) [8] | EC50 [7] [nM] | [3H]IP NCI-H1299 (hNMB-R) EC50 [7] | fold lower affinity for hBRS3 than for the ligand's own receptor [4]
CCCCNC(=O)[C@H](CC(C)C)NC(=O)[C@H](Cc1c[nH]cn1)NC(=O)CNC(=O)[C@@H](NC(=O)[C@H](C)NC(=O)[C@H](Cc1c[nH]c2ccccc12)NC(=O)[C@H](CCC(N)=O)NC(=O)[C@H](N)Cc1ccccc1)C(C)C [Peptide 14, [D-Phe^6]Bn(6-13)Butylamide (BA)] | 1.02 ± 0.09 | 3110 ± 160 | 1780 ± 30 | 692 ± 27 | 21.3 ± 1.6 | 15.5 ± 2 |  |  |  |  | 
CC(C)C[C@H](NC(=O)[C@H](Cc1cnc[nH]1)NC(=O)CNC(=O)[C@@H](NC(=O)[C@H](C)NC(=O)[C@H](Cc1c[nH]c2ccccc12)NC(=O)[C@H](CCC(N)=O)NC(=O)[C@H](N)Cc1ccccc1)C(C)C)C(N)=O [Peptide 8, [D-Phe^6]Bn(6-13)NH2] | 4.93 ± 0.39 | > 10000 | > 10000 | > 10000 | 416 ± 8 | 398 ± 11 | > 10000 |  |  |  | 
CCCC[C@H](NC(=O)[C@H](Cc1ccccc1)NC(=O)[C@H](Cc1cnc[nH]1)NC(=O)CCNC(=O)[C@@H](NC(=O)[C@H](C)NC(=O)[C@H](Cc1c[nH]c2ccccc12)NC(=O)[C@H](CCC(N)=O)NC(=O)[C@H](N)Cc1ccc(O)cc1)C(C)C)C(N)=O [Peptide 35, [D-Tyr^6, β-Ala^11,Phe^13, Nle^14]Bn-(6-14), reference compound] (H-[dY]QWAV[βAla]HF[Nle]-NH2) |  | 0.31 ± 0.01 |  | 0.55 ± 0.03 |  |  |  |  |  |  | 
CCCCCCNC(=O)[C@H](CC(C)C)NC(=O)[C@H](Cc1cnc[nH]1)NC(=O)CNC(=O)[C@@H](NC(=O)[C@H](C)NC(=O)[C@H](Cc1c[nH]c2ccccc12)NC(=O)[C@H](CCC(N)=O)NC(=O)[C@H](N)Cc1ccccc1)C(C)C [Peptide 15, [D-Phe^6]Bn-(6-13)Hexylamide] | 2.19 ± 0.04 | 8140 ± 400 | > 10000 | 3250 ± 60 | 380 ± 31 | 204 ± 14 |  |  |  |  | 
CCCNC(=O)[C@H](CC(C)C)NC(=O)[C@H](Cc1c[nH]cn1)NC(=O)CNC(=O)[C@@H](NC(=O)[C@H](C)NC(=O)[C@H](Cc1c[nH]c2ccccc12)NC(=O)[C@H](CCC(N)=O)NC(=O)[C@H](N)Cc1ccccc1)C(C)C [Peptide 11, [D-Phe^6-Bn](6-13)Propylamide (PA)] | 0.39 ± 0.12 | 2440 ± 160 | 3090 ± 70 | 1910 ± 300 | 31 ± 1 | 36.3 ± 1 |  | ≥ 1,000 fold |  |  | 
CSCC[C@H](NC(=O)[C@H](CC(C)C)NC(=O)[C@@H](Cc1ccccc1)NC(=O)CNC(=O)[C@@H](NC(=O)[C@H](C)NC(=O)[C@H](Cc1c[nH]c2ccccc12)NC(=O)[C@H](CCC(N)=O)NC(=O)[C@H](CC(N)=O)NC(=O)CNC(=O)[C@H](Cc1ccc(O)cc1)NC(=O)[C@H](CCCNC(=N)N)NC(=O)[C@H](CCC(N)=O)NC(=O)[C@@H]1CCC(=O)N1)C(C)C)C(N)=O [Peptide 2, [Tyr^4, D-Phe^12]Bn] | 912 ± 76 | 3090 ± 320 | 1860 ± 60 | > 10000 | > 10000 | 8130 ± 226 |  |  | 103 ± 5 |  | 
CCNC(=O)[C@H](CC(C)C)NC(=O)[C@H](Cc1c[nH]cn1)NC(=O)CNC(=O)[C@@H](NC(=O)[C@H](C)NC(=O)[C@H](Cc1c[nH]c2ccccc12)NC(=O)[C@H](CCC(N)=O)NC(=O)[C@H](N)Cc1ccccc1)C(C)C [Peptide 10, [D-Phe^6]Bn(6-13)Ethylamide] | 2.22 ± 0.13 | > 10000 | > 10000 | > 10000 | 52.5 ± 4.3 | 43.6 ± 3.6 |  |  |  |  | 
CSCC[C@H](NC(=O)[C@@H](Cc1c[nH]c2ccccc12)NC(=O)[C@@H](Cc1c[nH]c2ccccc12)NC(=O)[C@H](Cc1ccccc1)NC(=O)[C@@H](Cc1c[nH]c2ccccc12)NC(=O)[C@H](CCC(N)=O)NC(=O)[C@H](CCC(N)=O)NC(=O)[C@H]1CCCN1)C(N)=O [Peptide 4, [D-Pro^4, D-Trp^7,9,10]SP-(4-11)] (H-[dP]QQ[dW]F[dW][dW]M-NH2) | > 10000 | > 10000 | > 10000 | 2300 ± 400 | > 3000 | > 3000 | 7080 ± 344 |  |  | No act | 
CSCC[C@H](NC(=O)[C@H](CC(C)C)NC(=O)[C@H](Cc1c[nH]cn1)NC(=O)CNC(=O)[C@@H](NC(=O)[C@H](C)NC(=O)[C@H](Cc1c[nH]c2ccccc12)NC(=O)[C@H](Cc1c[nH]cn1)NC(=O)[C@H](CC(N)=O)NC(=O)CNC(=O)[C@H](CCCNC(=N)N)NC(=O)[C@@H]1CCCN1C(=O)[C@H](Cc1ccc(O)cc1)NC(=O)[C@H](CCSC)NC(=O)[C@H](CCCCN)NC(=O)[C@@H](NC(=O)[C@H](CC(C)C)NC(=O)[C@@H](NC(=O)[C@@H](NC(=O)CNC(=O)CNC(=O)CNC(=O)[C@H](C)NC(=O)[C@@H]1CCCN1C(=O)[C@H](CC(C)C)NC(=O)[C@@H]1CCCN1C(=O)[C@@H](N)C(C)C)[C@@H](C)O)C(C)C)[C@@H](C)O)C(C)C)C(N)=O [GRP, gastrin-releasing peptide, reference compound] |  |  |  |  |  |  |  |  |  |  | > 10,000 fold
NQWAVGHL-NH2 [Peptide 9, Bn(6-13)NH2] |  | > 10000 |  | > 10000 |  |  |  |  |  |  | 
CC(C)C[C@H](NC(=O)[C@H](CC(C)C)NC(=O)[C@@H](Cc1ccccc1)NC(=O)CNC(=O)[C@@H](NC(=O)[C@H](C)NC(=O)[C@H](Cc1c[nH]c2ccccc12)NC(=O)[C@H](CCC(N)=O)NC(=O)[C@H](CC(N)=O)NC(=O)CNC(=O)[C@H](CC(C)C)NC(=O)[C@H](CCCNC(=N)N)NC(=O)[C@H](CCC(N)=O)NC(=O)[C@@H]1CCC(=O)N1)C(C)C)C(N)=O [Peptide 1, [D-Phe^12, Leu^14]Bn] ([pGlu]QRLGNQWAVG[dF]LL-NH2) |  | > 10000 |  | > 10000 |  |  |  |  |  |  | 
CCCNC(=O)[C@H](Cc1ccccc1)NC(=O)[C@H](Cc1c[nH]cn1)NC(=O)CNC(=O)[C@@H](NC(=O)[C@H](C)NC(=O)[C@H](Cc1c[nH]c2ccccc12)NC(=O)[C@H](CCC(N)=O)NC(=O)[C@H](N)Cc1ccccc1)[C@@H](C)O [Peptide 13, [D-Phe^6,Thr^10, Phe^13]Bn(6-13)PA] (H-[dF]QWATGHF-NHPr) |  | 1320 ± 30 |  | > 10000 |  |  |  |  |  |  | 
CCCNC(=O)[C@H](CC(C)C)NC(=O)[C@H](Cc1c[nH]cn1)NC(=O)CNC(=O)[C@@H](NC(=O)[C@H](C)NC(=O)[C@H](Cc1c[nH]c2ccccc12)NC(=O)[C@H](CCC(N)=O)NC(=O)[C@H](N)Cc1ccc(O)cc1)C(C)C [Peptide 12, [D-Tyr^6]Bn-(6-13)Propylamide (PA)] | 1.41 ± 0.06 | > 10000 | > 10000 | 1900 ± 300 | 275 ± 13 | 40.7 ± 1.4 |  |  |  |  | 
COC(=O)[C@H]1CCCN1C(=O)[C@H](Cc1c[nH]cn1)NC(=O)[C@@H](C)NC(=O)[C@@H](NC(=O)[C@H](C)NC(=O)[C@H](Cc1c[nH]c2ccccc12)NC(=O)[C@H](Cc1c[nH]cn1)NC(=O)[C@H](N)Cc1c(F)c(F)c(F)c(F)c1F)C(C)C [Peptide 19, [D-F-5-Phe^6, His^7, D-Ala^11, D-Pro^13]Bn(6-13)ME] (H-[dPhe(F5)]HWAV[dA]H[dP]-OMe) |  | > 10000 |  | > 10000 |  |  |  |  |  |  | 
CC(C)C[C@H](NC(=O)[C@H](CC(C)C)NC(=O)[C@@H](Cc1c[nH]c2ccccc12)NC(=O)[C@H](Cc1ccccc1)NC(=O)[C@@H](Cc1c[nH]c2ccccc12)NC(=O)[C@H](CCC(N)=O)NC(=O)[C@H](CCC(N)=O)NC(=O)[C@@H]1CCCN1C(=O)[C@H](CCCCN)NC(=O)[C@@H]1CCCN1C(=O)[C@H](N)CCCN=C(N)N)C(N)=O [Peptide 3, [D-Arg^1, D-Trp^7,9, Leu^11]SP] (H-[dR]PKPQQ[dW]F[dW]LL-NH2) | 1780 ± 50 | 4480 ± 860 | 1590 ± 30 | > 10000 | 1580 ± 81 | 8310 ± 154 | 2340 ± 80 |  |  |  | 
CC(C)C[C@H](NC(=O)[C@H](CC(C)C)NC(=O)[C@@H](Cc1c[nH]c2ccccc12)NC(=O)[C@H](Cc1ccccc1)NC(=O)[C@@H](Cc1c[nH]c2ccccc12)NC(=O)[C@H](CCC(N)=O)NC(=O)[C@H](CCC(N)=O)NC(=O)[C@@H]1CCCN1C(=O)[C@H](CCCCN)NC(=O)[C@@H]1CCCN1C(=O)[C@H](N)CCCNC(=N)N)C(N)=O [Peptide 3, [D-Arg^1, D-Trp^7,9, Leu^11]SP] (H-[dR]PKPQQ[dW]F[dW]LL-NH2) |  |  |  |  |  |  |  |  |  | No act | 
CCCCCCCNC(=O)[C@H](CC(C)C)NC(=O)[C@H](Cc1c[nH]cn1)NC(=O)CNC(=O)[C@@H](NC(=O)[C@H](C)NC(=O)[C@H](Cc1c[nH]c2ccccc12)NC(=O)[C@H](CCC(N)=O)NC(=O)[C@H](N)Cc1ccccc1)C(C)C [Peptide 16, [D-Phe^6]Bn(6-13)Heptylamide] |  | 6100 ± 630 |  | > 10000 |  |  |  |  |  |  | 
